From ChEMBL document CHEMBL1141904, “Benzothiophenes containing a piperazine side chain as selective ligands for the estrogen receptor alpha and their bioactivities in vivo” (Bioorg Med Chem Lett, 2005)

What was measured:
[1] = biological target: T1, Estrogen receptor (Homo sapiens, UniProt P03372)
T1 sequence (P03372 whole entry): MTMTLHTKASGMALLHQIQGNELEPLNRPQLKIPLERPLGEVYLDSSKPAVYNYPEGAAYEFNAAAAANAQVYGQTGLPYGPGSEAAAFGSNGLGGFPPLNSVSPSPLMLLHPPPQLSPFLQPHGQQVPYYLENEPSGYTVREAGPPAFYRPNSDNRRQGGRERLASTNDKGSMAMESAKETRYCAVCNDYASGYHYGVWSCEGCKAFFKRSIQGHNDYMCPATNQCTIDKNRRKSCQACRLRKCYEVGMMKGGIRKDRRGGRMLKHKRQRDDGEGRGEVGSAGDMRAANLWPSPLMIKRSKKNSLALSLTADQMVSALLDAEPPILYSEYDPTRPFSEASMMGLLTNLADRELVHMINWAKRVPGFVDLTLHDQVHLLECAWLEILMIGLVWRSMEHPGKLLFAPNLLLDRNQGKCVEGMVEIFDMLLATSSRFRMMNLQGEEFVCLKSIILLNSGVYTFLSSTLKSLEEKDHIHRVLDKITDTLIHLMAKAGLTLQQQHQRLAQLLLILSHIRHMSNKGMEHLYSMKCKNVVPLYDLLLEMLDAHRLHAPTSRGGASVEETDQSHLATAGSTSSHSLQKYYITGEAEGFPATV
Description: Inhibition of estrogen receptor alpha

[2] = biological target: Estrogen receptor beta (Homo sapiens, UniProt Q92731); assay: Inhibition of estrogen receptor beta
[3] = biological target: T2, Estrogen receptor (Mus musculus) (UniProt P19785)
T2 sequence (whole entry): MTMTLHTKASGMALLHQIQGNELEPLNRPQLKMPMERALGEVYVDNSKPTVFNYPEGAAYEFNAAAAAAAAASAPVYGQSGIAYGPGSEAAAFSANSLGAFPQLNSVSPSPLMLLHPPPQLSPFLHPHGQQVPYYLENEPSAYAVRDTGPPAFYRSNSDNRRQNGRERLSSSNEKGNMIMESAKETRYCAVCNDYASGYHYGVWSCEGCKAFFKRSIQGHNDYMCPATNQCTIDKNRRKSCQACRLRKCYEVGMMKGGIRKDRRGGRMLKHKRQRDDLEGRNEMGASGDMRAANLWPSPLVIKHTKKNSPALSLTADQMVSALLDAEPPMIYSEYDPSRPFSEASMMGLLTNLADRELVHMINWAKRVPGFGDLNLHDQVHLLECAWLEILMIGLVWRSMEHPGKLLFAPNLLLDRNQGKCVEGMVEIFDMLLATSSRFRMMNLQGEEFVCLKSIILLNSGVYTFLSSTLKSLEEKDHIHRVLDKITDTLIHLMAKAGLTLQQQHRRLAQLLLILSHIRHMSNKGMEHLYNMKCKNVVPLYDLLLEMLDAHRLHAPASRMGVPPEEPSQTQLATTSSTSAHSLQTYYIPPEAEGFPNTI
Description: Bone mineral density of compound was determined in vivo against estrogen receptor alpha

[4] = biological target: T2, Estrogen receptor (Mus musculus); settings: Uterus
Description: Uterine weight assay of compound was determined in vivo against estrogen receptor alpha

Estrogen receptor beta, sequence (Q92731 whole entry): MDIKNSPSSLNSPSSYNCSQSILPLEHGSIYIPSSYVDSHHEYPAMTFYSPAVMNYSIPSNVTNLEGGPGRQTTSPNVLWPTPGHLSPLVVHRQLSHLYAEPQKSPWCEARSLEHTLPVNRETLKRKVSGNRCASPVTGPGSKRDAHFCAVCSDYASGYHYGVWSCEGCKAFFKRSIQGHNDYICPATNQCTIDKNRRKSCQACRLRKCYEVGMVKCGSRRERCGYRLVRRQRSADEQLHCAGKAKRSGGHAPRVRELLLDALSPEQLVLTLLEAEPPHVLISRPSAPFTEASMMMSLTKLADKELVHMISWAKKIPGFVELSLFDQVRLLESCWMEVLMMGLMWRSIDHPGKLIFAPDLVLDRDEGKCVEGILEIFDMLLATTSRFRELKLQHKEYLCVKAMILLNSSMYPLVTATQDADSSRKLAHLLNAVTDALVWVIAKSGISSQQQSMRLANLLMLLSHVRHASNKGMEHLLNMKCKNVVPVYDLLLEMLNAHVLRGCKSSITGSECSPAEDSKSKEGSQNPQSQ

SMILES | IC50 [1] [nM] | IC50 [2] [nM] | Bone mineral density [3] [mg/cubic cm] | Uterine weight [4] [mg]
O=C(c1ccc(N2CCN(C(=O)c3ccc(Cl)cc3)CC2)cc1)c1c(-c2ccc(O)cc2)sc2cc(O)ccc12 | 0.78 | 4.02 |  | 
Cc1ccccc1C(=O)N1CCN(c2ccc(C(=O)c3c(-c4ccc(O)cc4)sc4cc(O)ccc34)cc2)CC1 | 3.94 | 17.7 |  | 
O=C(c1ccc(N2CCN(C(=O)c3ccccc3)CC2)cc1)c1c(-c2ccc(O)cc2)sc2cc(O)ccc12 | 0.86 | 25.3 |  | 
CC(C)N1CCN(c2ccc(C(=O)c3c(-c4ccc(O)cc4)sc4cc(O)ccc34)cc2)CC1 | 0.28 | 33.9 | 541 | 38.8
O=C(c1ccc(N2CCN(C(=O)c3ccccc3[N+](=O)[O-])CC2)cc1)c1c(-c2ccc(O)cc2)sc2cc(O)ccc12 | 3.58 | 12.9 |  | 
CCCN1CCN(c2ccc(C(=O)c3c(-c4ccc(O)cc4)sc4cc(O)ccc34)cc2)CC1 | 1.43 | 29.4 |  | 
O=C(c1ccc(N2CCN(C3CCCC3)CC2)cc1)c1c(-c2ccc(O)cc2)sc2cc(O)ccc12 | 1.08 | 18.1 |  | 
O=C(c1ccc(N2CCN(C(=O)c3ccco3)CC2)cc1)c1c(-c2ccc(O)cc2)sc2cc(O)ccc12 | 2.65 | 20.1 |  | 
O=C(c1ccc(N2CCN(C(=O)c3ccccc3Cl)CC2)cc1)c1c(-c2ccc(O)cc2)sc2cc(O)ccc12 | 1.72 | 3.21 |  | 
Cc1ccc(C(=O)N2CCN(c3ccc(C(=O)c4c(-c5ccc(O)cc5)sc5cc(O)ccc45)cc3)CC2)cc1 | 2.74 | 4.94 |  | 
O=C(c1ccc(N2CCN(c3ccc(Cl)cc3)CC2)cc1)c1c(-c2ccc(O)cc2)sc2cc(O)ccc12 | 0.22 | 9.07 | 482 | 30.5
O=C(c1ccc(N2CCN(Cc3ccc([N+](=O)[O-])cc3)CC2)cc1)c1c(-c2ccc(O)cc2)sc2cc(O)ccc12 |  | 14.2 |  | 
O=C(c1ccc(N2CCN(C(=O)c3ccc([N+](=O)[O-])cc3)CC2)cc1)c1c(-c2ccc(O)cc2)sc2cc(O)ccc12 | 2.15 | 1.27 |  | 
O=C(c1ccc(N2CCN(C(=O)c3ccncc3)CC2)cc1)c1c(-c2ccc(O)cc2)sc2cc(O)ccc12 | 14.5 | 93.6 |  | 
O=C(c1ccc(N2CCN(C(=O)c3cccc(Cl)c3)CC2)cc1)c1c(-c2ccc(O)cc2)sc2cc(O)ccc12 | 0.46 | 3.7 | 432 | 29.3
Cc1cc(C)nc(N2CCN(c3ccc(C(=O)c4c(-c5ccc(O)cc5)sc5cc(O)ccc45)cc3)CC2)n1 | 2.12 | 66.5 |  | 
Cc1cccc(C(=O)N2CCN(c3ccc(C(=O)c4c(-c5ccc(O)cc5)sc5cc(O)ccc45)cc3)CC2)c1 | 0.27 | 12.5 |  | 
O=C(c1ccc(N2CCN(C(=O)c3cccc(O)c3)CC2)cc1)c1c(-c2ccc(O)cc2)sc2cc(O)ccc12 | 1.39 | 19.8 |  | 
O=C(c1ccc(N2CCN(Cc3ccccc3)CC2)cc1)c1c(-c2ccc(O)cc2)sc2cc(O)ccc12 | 0.97 | 5.53 |  | 
O=C(c1ccc(N2CCN(C(=O)c3ccccc3O)CC2)cc1)c1c(-c2ccc(O)cc2)sc2cc(O)ccc12 | 3.05 | 7.92 |  | 
